Data from US6046238A, “Method for treating or preventing the spread of acne vulgaris” (TriStrata, Inc., priority 1999, dated 2000).
Values after ≈ are worked out from the molar mass of the structure shown. “Also recorded” adds a separate entry of the source. Read-outs that look alike come from different tables or passages of the source. Blank lines part the entries; values can stand above or below the molecule they belong to.

Assays:
Type in all cases: cell-based
Propionibacterium acnes = experiment: MIC Agar Dilution Test, Propionibacterium acnes; conditions: Cutibacterium acnes
Text: (§1) The following strains of microorganisms were used in Minimum Inhibitory Concentration (MIC) tests for phenyl 2-acetoxyethanoic acid in this example and for benzoyl peroxide, chlorhexidine gluconate and triclosan in the following examples. In total, five strains were used for S. aureus, five strains were used for S. epidermidis, two strains were used for M. sedentarius, three strains were used for M. luteus, two strains were used for B. epidermis, three strains were used for C. minutissium, one strain was used for S. marcescens, three strains were used for P. aeruginosa, four strains were used for E. coli, and thirty-two strains were used for P. acnes.
(§2) Antimicrobial effects were determined based on MIC Agar Dilution Test utilizing Trypticase Soy Agar II (BBL) incorporation plates with and without 10% intralipid (Kabi Pharmacia Inc.). Initially, phenyl 2-acetoxyethanoic acid was prepared as a 2 mg/ml (0.2%) solution in water. This solution with serial dilution was incorporated into the test agar plates. The MIC test gave similar results when the same species but a different strain was used.
(§3) Under the same test conditions described in Example 1, benzoyl peroxide was prepared as a 2.5 mg/ml (0.25%) solution in water. This solution with serial dilution was incorporated into the test agar plates. Typical test results are shown as follows.
(§4) Under the same test conditions described in Example 1, chlorhexidine gluconate was prepared as a 2 mg/ml (0.2%) solution in water. This solution with serial dilution was incorporated into the test agar plates. Typical test results are shown as follows.
(§5) Under the same test conditions described in Example 1, triclosan was prepared as a 10 mg/ml (1%) solution in water. This solution with serial dilution was incorporated into the test agar plates. Typical test results are shown as follows.
(§6) Ten different species of bacteria were used in Minimum Inhibitory Concentration (MIC) tests. The bacteria include S. aureus, S. epidermidis,M. sedentarius, M. luteus, B. epidermis, C. minutissium, S. marcescens, P. aeruginosa, E. coli, and P. acnes. In addition various sources and strains of these bacteria were also included in the tests, and up to 32 different strains of P. acnes were used.
(§7) The test substance selected from phenyl 2-acetoxyethanoic acid, benzoyl peroxide, chlorhexidine gluconate and triclosan was dissolved in water, and the solution with serial dilution was incorporated into the test agar plates. The plates containing different concentrations of test substance were inoculated with a strain of bacterium. MIC is defined as the lowest concentration of the test substance in the plate in which there is no growth of the microorganism.

Micrococcus luteus = experiment: MIC Agar Dilution Test, Micrococcus luteus
Text: as §1, §2, §3, §4, §5, §6, §7

[1] = system: Corynebacterium minutissium; experiment: MIC Agar Dilution Test, Corynebacterium minutissium
Text: as §1, §2, §3, §4, §5, §6, §7

Micrococcus sedentarius = experiment: MIC Agar Dilution Test, Micrococcus sedentarius; conditions: Kytococcus sedentarius
Text: as §1, §2, §3, §4, §5, §6, §7

Brevibacterium epidermis = experiment: MIC Agar Dilution Test, Brevibacterium epidermis
Text: as §1, §2, §3, §4, §5, §6, §7

Escherichia coli = experiment: MIC Agar Dilution Test, Escherichia coli
Text: as §1, §2, §3, §4, §5, §6, §7

Serratia marcescens = experiment: MIC Agar Dilution Test, Serratia marcescens
Text: as §1, §2, §3, §4, §5, §6, §7

Pseudomonas aeruginosa = experiment: MIC Agar Dilution Test, Pseudomonas aeruginosa
Text: as §1, §2, §3, §4, §5, §6, §7

Staphylococcus aureus = experiment: MIC Agar Dilution Test, Staphylococcus aureus
Text: as §1, §2, §3, §4, §5, §6, §7

[2] = system: Staphylococcus epidermidis; experiment: MIC Agar Dilution Test, Staphylococcus epidermidis
Text: as §1, §2, §3, §4, §5, §6, §7

[3] = system: ten different species of bacteria; experiment: MIC Agar Dilution Test, panel of ten bacteria
Text: as §1, §2, §3, §4, §5
In order to determine the antimicrobial effect of an aryl 2-acetoxyethanoicacid, a standard test method of Minimum Inhibitory Concentration (MIC) against the growth of 10 bacteria was used. To determine a prophylactic effect against the development of, as well as a topical effect in the treatment of, body foul door, eleven human subjects participated in this study. More than twenty human subjects participated in a study to determine whether the compositions containing an aryl 2-acetoxyethanoic acid were therapeutically effective for topical treatment of folliculitis and other skin lesions, nail infections and mucosal infections caused by microbial infections. Scientific and test results are overviewed as follows.
as §6, §7

[4] = in the absence of lipid materials, triclosan: excluding S. marcescens and P. aeruginosa
[5] = in the presence of 10% lipid materials, benzoyl peroxide: excluding S. marcescens and P. aeruginosa
[6] = P. acnes, 10% intralipid, read-out: MIC Lipid
[7] = P. acnes, no lipid, read-out: MIC No Lipid
[8] = M. luteus, 10% intralipid, read-out: MIC Lipid
[9] = M. luteus, no lipid, read-out: MIC No Lipid
[10] = C. minutissium, 10% intralipid, read-out: MIC Lipid
[11] = C. minutissium, no lipid, read-out: MIC No Lipid
[12] = M. sedentarius, 10% intralipid, read-out: MIC Lipid
[13] = M. sedentarius, no lipid, read-out: MIC No Lipid
[14] = B. epidermis, 10% intralipid, read-out: MIC Lipid
[15] = B. epidermis, no lipid, read-out: MIC No Lipid
[16] = E. coli, 10% intralipid, read-out: MIC Lipid
[17] = E. coli, no lipid, read-out: MIC No Lipid
[18] = S. marcescens, 10% intralipid, read-out: MIC Lipid
[19] = S. marcescens, no lipid, read-out: MIC No Lipid
[20] = P. aeruginosa, 10% intralipid, read-out: MIC Lipid
[21] = P. aeruginosa, no lipid, read-out: MIC No Lipid
[22] = S. aureus, 10% intralipid, read-out: MIC Lipid
[23] = S. aureus, no lipid, read-out: MIC No Lipid
[24] = S. epidermidis, 10% intralipid, read-out: MIC Lipid
[25] = S. epidermidis, no lipid, read-out: MIC No Lipid

Compound: Oc1cc(Cl)ccc1Oc1ccc(Cl)cc1Cl [triclosan]
MIC (Propionibacterium acnes; read-out: MIC Lipid): > 10000 µg/mL | MIC (Propionibacterium acnes; read-out: MIC No Lipid): 156 µg/mL (≈ 0.539 mM) | MIC (Micrococcus luteus; read-out: MIC Lipid): > 10000 µg/mL | MIC (Micrococcus luteus; read-out: MIC No Lipid): 156 µg/mL (≈ 0.539 mM) | MIC ([1]; read-out: MIC Lipid): > 10000 µg/mL | MIC ([1]; read-out: MIC No Lipid): 156 µg/mL (≈ 0.539 mM) | MIC (Micrococcus sedentarius; read-out: MIC Lipid): > 10000 µg/mL | MIC (Micrococcus sedentarius; read-out: MIC No Lipid): 156 µg/mL (≈ 0.539 mM) | MIC (Brevibacterium epidermis; read-out: MIC Lipid): > 10000 µg/mL | MIC (Brevibacterium epidermis; read-out: MIC No Lipid): 156 µg/mL (≈ 0.539 mM) | MIC (Escherichia coli; read-out: MIC Lipid): > 10000 µg/mL | MIC (Escherichia coli; read-out: MIC No Lipid): 156 µg/mL (≈ 0.539 mM) | MIC (Serratia marcescens; read-out: MIC Lipid): > 10000 µg/mL | MIC (Serratia marcescens; read-out: MIC No Lipid): > 10000 µg/mL | MIC (Pseudomonas aeruginosa; read-out: MIC Lipid): > 10000 µg/mL | MIC (Pseudomonas aeruginosa; read-out: MIC No Lipid): > 10000 µg/mL | MIC (Staphylococcus aureus; read-out: MIC Lipid): > 10000 µg/mL | MIC (Staphylococcus aureus; read-out: MIC No Lipid): 156 µg/mL (≈ 0.539 mM) | MIC ([2]; read-out: MIC Lipid): 5000 µg/mL (≈ 17.3 mM) | MIC ([2]; read-out: MIC No Lipid): 156 µg/mL (≈ 0.539 mM) | effect against the growth of the bacteria [3, 4]: effective against various bacteria | effect against the growth of the bacteria [3, 5]: ineffective; also recorded: not effective against the growth of all the bacteria tested; also recorded: ineffective against most microorganisms | MIC ([3]; read-out: concentration found effective against the bacteria tested): 156 µg/mL (≈ 0.539 mM)

MIC (Propionibacterium acnes; [6]): 625 µg/mL (≈ 2.58 mM) | MIC (Propionibacterium acnes; [7]): 2500 µg/mL (≈ 10.3 mM) | MIC (Propionibacterium acnes; in the presence of 10% lipid materials, read-out: concentration effective against P. acnes): 625 µg/mL | MIC (Micrococcus luteus; [8]): 650 µg/mL (≈ 2.68 mM) | MIC (Micrococcus luteus; [9]): 2500 µg/mL (≈ 10.3 mM) | MIC (Micrococcus luteus; in the presence of 10% lipid materials (printed M. lutens), read-out: concentration showing inhibitory effects against M. luteus): 625 µg/mL | MIC [1, 10]: 1250 µg/mL (≈ 5.16 mM) | MIC [1, 11]: 2500 µg/mL (≈ 10.3 mM) | MIC (Micrococcus sedentarius; [12]): 650 µg/mL (≈ 2.68 mM) | MIC (Micrococcus sedentarius; [13]): 2500 µg/mL (≈ 10.3 mM) | MIC (Micrococcus sedentarius; in the presence of 10% lipid materials, read-out: concentration showing inhibitory effects against M. sedentarius): 625 µg/mL | MIC (Brevibacterium epidermis; [14]): 1250 µg/mL (≈ 5.16 mM) | MIC (Brevibacterium epidermis; [15]): 2500 µg/mL (≈ 10.3 mM) | MIC (Escherichia coli; [16]): 1250 µg/mL (≈ 5.16 mM) | MIC (Escherichia coli; [17]): 2500 µg/mL (≈ 10.3 mM) | MIC (Serratia marcescens; [18]): 1250 µg/mL (≈ 5.16 mM) | MIC (Serratia marcescens; [19]): 72500 µg/mL (≈ 299 mM) | MIC (Pseudomonas aeruginosa; [20]): 1250 µg/mL (≈ 5.16 mM) | MIC (Pseudomonas aeruginosa; [21]): 72500 µg/mL (≈ 299 mM) | MIC (Staphylococcus aureus; [22]): 1250 µg/mL (≈ 5.16 mM) | MIC (Staphylococcus aureus; [23]): 2500 µg/mL (≈ 10.3 mM) | MIC [2, 24]: 1250 µg/mL (≈ 5.16 mM) | MIC [2, 25]: 2500 µg/mL (≈ 10.3 mM)
Compound: O=C(OOC(=O)c1ccccc1)c1ccccc1 [benzoyl peroxide]
effect against the growth of the bacteria [3, 4]: not effective against the growth of all the bacteria tested | effect against the growth of the bacteria [3, 5]: moderately effective

MIC (Propionibacterium acnes; [6]): > 2000 µg/mL | MIC (Propionibacterium acnes; [7]): 62.5 µg/mL | MIC (Micrococcus luteus; [8]): > 2000 µg/mL | MIC (Micrococcus luteus; [9]): 125 µg/mL | MIC [1, 10]: > 2000 µg/mL | MIC [1, 11]: 125 µg/mL | MIC (Micrococcus sedentarius; [12]): > 2000 µg/mL | MIC (Micrococcus sedentarius; [13]): 125 µg/mL | MIC (Brevibacterium epidermis; [14]): > 2000 µg/mL | MIC (Brevibacterium epidermis; [15]): 250 µg/mL | MIC (Escherichia coli; [16]): > 2000 µg/mL | MIC (Escherichia coli; [17]): 250 µg/mL | MIC (Serratia marcescens; [18]): > 2000 µg/mL | MIC (Serratia marcescens; [19]): 1000 µg/mL | MIC (Pseudomonas aeruginosa; [20]): > 2000 µg/mL | MIC (Pseudomonas aeruginosa; [21]): 1000 µg/mL | MIC (Staphylococcus aureus; [22]): > 2000 µg/mL | MIC (Staphylococcus aureus; [23]): 125 µg/mL | MIC [2, 24]: > 2000 µg/mL | MIC [2, 25]: 125 µg/mL
Compound: N=C(NCCCCCCNC(=N)NC(=N)Nc1ccc(Cl)cc1)NC(=N)Nc1ccc(Cl)cc1 [chlorhexidine gluconate]
effect against the growth of the bacteria [3, 4]: effective against various bacteria | effect against the growth of the bacteria [3, 5]: totally ineffective; also recorded: not effective against the growth of all the bacteria tested; also recorded: ineffective against most microorganisms
